Laboratory results: patent US20240262842A1, “SMALL MOLECULE INHIBITORS OF KRAS G12C MUTANT” (Merck Sharp & Dohme LLC, priority 2021, published 2024)
pIC50: −log10 of the molar value.

Molecular target: biotinylated KRAS G12C protein (GMP-PNP loaded) and GST-tagged Ras binding domain of c-RAF (Homo sapiens, UniProt P01116, C118S/C51S/C80L/G12C)
Assay: RAS:RAF-RBD binding assay (TR-FRET)
Details: 30-minute incubation of compound with KRAS G12C before RAF-RBD; Table 4; read-out: IC50

(Z)-N-(4-((4-(9,10-dimeth- yl-7-(trifluoromethyl)- 13,14-dihydro-9H-imid- azo[4″,5″:5′6′]benzo- [1′,2′:2,3]oxocino[4,5,6- hi]indolizine-2-carbonyl)- 2,6-difluorophenyl)amino)- 3-fluoro-4-oxobut-2-en-1- yl)-1-methylcyclopropan- 1-aminium2,2,2-trifluoro- acetate [Example 261]
pIC50: 7.65
